Assay results: paper PMC11076555, “Dishevelled2 activates WGEF via its interaction with a unique internal peptide motif of the GEF” (Communications Biology, 2024)

Experiments:
[1] = target: T1, Dvl2^PDZ (PDZ domain of human Dishevelled2) (Homo sapiens, UniProt O14641); assay: Microscale thermophoresis (MST) binding to Dvl2^PDZ; conditions: compared with wild-type WGEF^pep, triplicates
T1 construct: introducing a stop codon after C354 residue of Dvl2^PDZ to eliminate the fused peptide, cloned at the C-termini of PDZ; 6xHis (N, cleaved yes); host or cells: E. coli Rosetta (DE3)
T1 sequence (O14641 267-339 limits assumed): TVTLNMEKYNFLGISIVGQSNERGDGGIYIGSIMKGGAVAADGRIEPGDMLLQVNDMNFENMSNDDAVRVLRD
Method: MST experiments were performed using Monolith NT.115 instrument from Nanotemper technologies. Dvl2^PDZ domain was fluorescently labelled as per the instructions, using Monolith Redmaleimide 2nd generation-cysteine reactive label. The experimental condition consists of 10 mM Tris–HCl pH8, 150 mM NaCl, 2 mM DTT, 5% Glycerol and 0.05% Tween20. For Dvl2^PDZ-peptide affinity determination, synthetic WGEF peptides were serially diluted (1:2) 16 times, starting from an approximate concentration of 3.4 mM. 50 nM of fluorescently labelled Dvl2^PDZ domain was added to the serially diluted peptides, followed by incubation at 25 °C for 30 minutes. Thermophoresis signals were recorded at 20% of excitation power and 40% MST at 25 °C. Data was fitted using the Kd fit model in the MO. Affinity Analysis v2.3 software. Like peptides, hWGEF (330–581) protein was serially diluted to obtain a protein concentration range of 138–0.0042 µM. Experimental conditions were the same as mentioned above for peptides. All MST experiments were done in triplicates.
Guanine nucleotide exchange assays were performed in triplicates. Fluorescence decrease was fitted using a single exponential decay mode in GraphPad Prism. All results are reported with standard deviation (±SD). Statistical significance was calculated using ordinary One-way ANOVA with multiple comparisons. * Represents adjust P value with statistical significance of ****P < 0.0001, ***P < 0.001, **P < 0.01 and […]. MST assays were performed in triplicates. Data was fitted using the Kd fit model in the MO. Affinity Analysis v2.3 software. All results are reported with standard deviation (±SD). MD simulation runs for apo and peptide docked Dvl2^PDZ were performed in triplicates. Plots reported from MD simulation studies are represented with standard deviation (±SD).

[2] = system: Dvl2^PDZ–WGEF interaction; assay: In vitro guanine nucleotide exchange (GEF) assay, peptide competition with Dvl2^PDZ-activated xWGEF330; format: biochemical, Xenopus laevis (xWGEF), human (hDvl2^PDZ; conditions: 200 µM peptide, 50 µM Dvl2^PDZ, 5 µM xWGEF330, 2 µM Mant-GDP loaded RhoA, 30 min at 25 °C, fluorescence 360/440 nm, triplicates
Method: Guanine nucleotide exchange assays were carried out using RhoA loaded with fluorescently labelled Mant-GDP[63],[64]. Briefly, 150 μM of RhoA was incubated with 5 Molar excess of fluorescent label, i.e., Mant-GDP in a buffer containing 10 mM Tris pH 8, 150 mM NaCl, 2 mM DTT, 5 mM EDTA, 0.5 mM MgCl2 and 5% Glycerol. The reaction was incubated on ice for 30 min, followed by the addition of 10 mM MgCl2 to stop the reaction. Excess Mant-GDP was removed through buffer exchange and Mant-GDP loaded RhoA was concentrated and stored at −80 °C. For assays, 2 μM of Mant-GDP loaded RhoA was incubated with 5 μM of xWGEF in the presence or absence of hDvl2^PDZ (0 μM, 25 μM and 50 μM) for 30 min at 25 °C. […] Once the fluorescence was stable, excess GTP (10x of labelled GTPase) was added to start the exchange reaction. […] A decrease in fluorescence was recorded using a BioTek Cytation5 plate reader with excitation and emission of 360 and 440 nm, respectively. Fluorescence was normalized and decrease was fitted using a single exponential decay mode in GraphPad Prism. […]
Guanine nucleotide exchange assays were performed in triplicates. Fluorescence decrease was fitted using a single exponential decay mode in GraphPad Prism. […]

Row | Sequence | Effect of alanine substitution on WGEF^pep–Dvl2^PDZ interaction (in words) [1] | Effect of peptide on GEF (nucleotide exchange) activity of Dvl2^PDZ-activated xWGEF330 [2]
1 | GSTFSLAQDIP [WGEF^pepW7A, alanine variant of WGEF^pep, …] | completely abolishes | –
2 | GSTFSLWQAIP [WGEF^pepD9A, alanine variant of WGEF^pep, …] | completely abolishes | decrease in the exchange activity of WGEF, but not to an extent brought out by the wild-type WGEF^pep
3 | GSTFSLWQDIA [WGEF^pepP11A, alanine variant of WGEF^pep, …] | completely abolishes | –
